Assay results taken from patent US12102639B2, “Imipridones for gliomas” (Oncoceutics, Inc., priority 2017, dated 2024).
“Also recorded” adds a separate entry of the source.

What was measured:
[1] = molecular target: T1, CXCR7 (Homo sapiens, UniProt P25106); test: GPCR arrestin recruitment reporter assay, CXCR7; assay type: cell-based
T1 construct: expressed in transfected cells
Source text: (§1) ONC201 dihydrochloride was obtained from Oncoceutics.

[2] = molecular target: DRD3 (Homo sapiens, UniProt P35462); test: GPCR β-arrestin recruitment reporter assay, DRD3; assay type: cell-based
[3] = test system: DRD2 (short and long isoforms); test: GPCR β-arrestin recruitment reporter assay, DRD2; assay type: cell-based; settings: for activity at DRD2: arrestin recruitment reporter assay
[4] = molecular target: T2, GPR91 (Homo sapiens, UniProt Q9BXA5); test: GPCR arrestin recruitment reporter assay, GPR91; assay type: cell-based
T2 construct: expressed in transfected cells
Experimental: (§2) Dual targeting of DRD2/3 and GPR132/91 represents a novel strategy for anti-cancer efficacy without toxicity. […] The safety profile of ONC213 confirmed in mouse MTD study with NOAEL 75 mg/kg three times that of ONC212 (25 mg/kg).
as §1

[5] = molecular target: T3, GPR132 (Homo sapiens, UniProt Q9UNW8); test: GPCR arrestin recruitment reporter assay, GPR132; assay type: cell-based; settings: for activity at GPR132: arrestin recruitment reporter assay
T3 construct: expressed in transfected cells
T3 sequence (Q9UNW8 1-380): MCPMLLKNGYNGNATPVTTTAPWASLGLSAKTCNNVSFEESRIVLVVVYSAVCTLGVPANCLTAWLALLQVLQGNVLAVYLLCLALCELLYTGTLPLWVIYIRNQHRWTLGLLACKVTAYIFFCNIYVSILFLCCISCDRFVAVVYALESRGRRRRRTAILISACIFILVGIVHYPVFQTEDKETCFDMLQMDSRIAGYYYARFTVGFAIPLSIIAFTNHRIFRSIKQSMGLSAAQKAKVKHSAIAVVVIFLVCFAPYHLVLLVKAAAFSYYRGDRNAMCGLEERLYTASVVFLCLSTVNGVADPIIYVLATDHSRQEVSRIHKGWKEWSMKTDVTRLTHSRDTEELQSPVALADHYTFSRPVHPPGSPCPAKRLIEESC
Experimental: as §2, §1

[6] = test system: HCT116 cells; test: Anticancer efficacy in HCT116 cells; assay type: cell-based, human; settings: HCT116 cells
[7] = molecular target: DRD5 (Homo sapiens, UniProt P21918); test: GPCR β-arrestin recruitment reporter assay, DRD5; assay type: cell-based
[8] = test system: patient-derived glioma stem cell (GSC) populations; test: Patient-derived glioma stem cell assays (CellTiter-Glo, limiting dilution, sphere formation); assay type: cell-based, human
Source text: In silico analysis of a glioma patient database led to investigation of DRD2 signaling in glioma; alteration of DRD2 mRNA expression was directly connected to global gene expression change in the glioma patient database.

[9] = test system: several cell lines; test: In vitro potency in several cell lines (Table 5)
[10] = test system: HFF (Normal Fibroblast); test: Cell viability of HFF normal fibroblasts; settings: therapeutic doses, Table 5
[11] = test system: Ewing's sarcoma cell lines; test: Ewing's sarcoma cell lines; assay type: cell-based; settings: 16 Ewing's sarcoma cell lines (FIG. 6, 7)
[12] = test system: NCI60 cancer cell line panel; test: NCI60 cancer cell line panel; assay type: cell-based; settings: NCI60 panel (FIG. 4)
[13] = test system: Bone cancer; test: Bone cancer responsiveness; assay type: cell-based; settings: FIG. 5
[14] = test system: GPCRs; test: In vitro profiling of GPCR activity (arrestin recruitment panel)
[15] = molecular target: DRD2L (Homo sapiens, UniProt P14416); test: Arrestin recruitment to DRD2L, Gaddum/Schild EC50 shift analysis; assay type: cell-based
[16] = test system: MV411 AML cells; test: MV411 AML xenograft model; settings: 50 mg/kg, oral weekly administration (ONC201 at similar doses)
[17] = molecular target: DRD4 (Homo sapiens, UniProt P21917); settings: arrestin recruitment reporter assay
[18] = test system: temozolomide-resistant high-grade glioma xenografts; test: High-grade glioma xenografts in mice; assay type: in vivo
[19] = test system: GDSC collection of cell lines; test: Genomic of Drug Sensitivity in Cancer (GDSC) cell line collection; assay type: cell-based, human; settings: cell viability at 72 hours post-treatment
Source text: FIG. 2. Tumor type sensitivity of the Genomic of Drug Sensitivity in Cancer program (GDSC) cell line collection. […] Numbers above the bar indicates indicate the number of cell lines per tumor type.
High expression of DRD2 occurred in primary, rather than secondary, glioblastoma and was associated with a poor prognosis. […] Resistance could be recapitulated with overexpression of the mutant DRD5 gene or, to a lesser extent, with the wild-type gene.

[20] = Phase II recurrent glioblastoma trial (NCT02525692); settings: human, in vivo, 625 mg
[21] = test system: recurrent glioblastoma; test: as above
[22] = test system: kinome
[23] = test system: H3.3 K27M mutant diffuse intrinsic pontine glioma (DIPG); test: Treatment of girls with H3.3 K27M mutant DIPG; settings: for symptoms / radiographic evaluation of tumor: child
[24] = test system: recurrent high grade glioma; test: Progression-free survival of patients with recurrent high grade glioma; assay type: in vivo, human; settings: H3 K27M (n=15) vs wild-type or unknown H3 status (n=35)
Source text: In one study of thirty-nine pediatric diffuse intrinsic pontine gliomas, DIPG patients carrying the K27M-H3.3 mutation (n=30) have worse overall survival compared to patients wild-type (n=9) for this histone (Khoung-Quang et al., Acta Neuropathol (2012) 124:439). […] The cohort is divided into two groups: one with known H3 K27M mutation (n=15) and the other with wild-type or unknown H3 status (n=35).

[25] = molecular target: DRD2 (Homo sapiens, UniProt P14416); settings: relative to antipsychotics
[26] = test system: tumor cells (HCT116, MDA-MB-231, U87); test: Cell viability of tumor cells after 72 hours; settings: Homo sapiens, read-out: viability of tumor cells
[27] = 17 patients, 625 mg every three weeks

DRD5, sequence (P21918 whole entry): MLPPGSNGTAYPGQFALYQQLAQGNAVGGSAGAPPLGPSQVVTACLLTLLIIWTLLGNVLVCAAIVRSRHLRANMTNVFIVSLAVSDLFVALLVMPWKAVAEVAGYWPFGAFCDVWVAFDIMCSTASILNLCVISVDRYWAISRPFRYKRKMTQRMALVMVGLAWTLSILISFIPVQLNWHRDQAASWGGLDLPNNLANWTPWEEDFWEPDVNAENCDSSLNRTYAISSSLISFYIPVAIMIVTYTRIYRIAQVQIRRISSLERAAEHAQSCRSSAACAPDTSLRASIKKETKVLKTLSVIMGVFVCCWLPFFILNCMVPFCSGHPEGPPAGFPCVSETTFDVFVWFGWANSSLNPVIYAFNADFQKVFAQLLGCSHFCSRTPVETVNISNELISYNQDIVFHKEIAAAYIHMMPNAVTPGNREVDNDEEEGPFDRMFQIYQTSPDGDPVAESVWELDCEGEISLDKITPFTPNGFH
T1 sequence (P25106 whole entry): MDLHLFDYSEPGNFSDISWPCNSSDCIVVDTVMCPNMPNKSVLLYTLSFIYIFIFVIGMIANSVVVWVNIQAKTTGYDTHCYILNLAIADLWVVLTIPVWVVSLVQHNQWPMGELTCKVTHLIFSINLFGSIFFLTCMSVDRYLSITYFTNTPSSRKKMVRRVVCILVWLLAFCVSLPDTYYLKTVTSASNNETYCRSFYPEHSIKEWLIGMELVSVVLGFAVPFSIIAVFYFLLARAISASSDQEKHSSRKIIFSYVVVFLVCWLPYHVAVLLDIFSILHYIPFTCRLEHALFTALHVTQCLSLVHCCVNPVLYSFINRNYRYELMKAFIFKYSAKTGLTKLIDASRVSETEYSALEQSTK
DRD4, sequence (P21917 whole entry): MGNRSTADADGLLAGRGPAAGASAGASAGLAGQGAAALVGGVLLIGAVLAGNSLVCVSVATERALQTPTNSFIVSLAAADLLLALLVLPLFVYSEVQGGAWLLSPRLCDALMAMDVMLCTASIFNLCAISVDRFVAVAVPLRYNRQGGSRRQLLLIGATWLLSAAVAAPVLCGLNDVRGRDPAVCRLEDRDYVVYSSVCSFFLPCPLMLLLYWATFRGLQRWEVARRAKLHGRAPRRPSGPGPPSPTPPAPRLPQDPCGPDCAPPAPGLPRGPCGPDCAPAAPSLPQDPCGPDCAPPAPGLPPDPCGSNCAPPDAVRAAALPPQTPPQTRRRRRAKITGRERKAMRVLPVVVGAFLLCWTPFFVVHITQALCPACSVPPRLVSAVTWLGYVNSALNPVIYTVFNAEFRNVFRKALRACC
T2 sequence (Q9BXA5 whole entry): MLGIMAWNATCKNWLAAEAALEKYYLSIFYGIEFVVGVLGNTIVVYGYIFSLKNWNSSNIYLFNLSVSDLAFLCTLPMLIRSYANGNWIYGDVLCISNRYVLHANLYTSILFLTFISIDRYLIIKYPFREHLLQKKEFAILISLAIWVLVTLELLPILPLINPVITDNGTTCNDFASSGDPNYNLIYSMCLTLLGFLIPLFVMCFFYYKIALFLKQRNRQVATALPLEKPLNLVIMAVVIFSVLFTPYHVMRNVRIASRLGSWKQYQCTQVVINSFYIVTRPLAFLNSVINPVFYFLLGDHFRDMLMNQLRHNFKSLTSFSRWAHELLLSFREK
DRD2L, sequence (P14416 whole entry): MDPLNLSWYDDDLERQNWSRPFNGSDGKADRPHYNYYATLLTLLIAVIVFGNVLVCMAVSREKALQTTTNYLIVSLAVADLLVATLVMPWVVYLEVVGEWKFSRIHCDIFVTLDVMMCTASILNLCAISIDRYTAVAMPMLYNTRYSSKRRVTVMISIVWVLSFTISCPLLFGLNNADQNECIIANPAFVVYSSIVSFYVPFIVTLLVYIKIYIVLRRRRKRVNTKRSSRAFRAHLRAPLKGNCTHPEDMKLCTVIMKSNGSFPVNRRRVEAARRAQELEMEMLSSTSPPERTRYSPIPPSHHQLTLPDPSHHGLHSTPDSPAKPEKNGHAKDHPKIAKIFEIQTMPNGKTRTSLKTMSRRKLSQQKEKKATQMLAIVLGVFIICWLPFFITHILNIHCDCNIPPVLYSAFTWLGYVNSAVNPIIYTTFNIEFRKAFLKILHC
DRD2, sequence (P14416 whole entry): as above
DRD3, sequence (P35462 whole entry, canonical isoform): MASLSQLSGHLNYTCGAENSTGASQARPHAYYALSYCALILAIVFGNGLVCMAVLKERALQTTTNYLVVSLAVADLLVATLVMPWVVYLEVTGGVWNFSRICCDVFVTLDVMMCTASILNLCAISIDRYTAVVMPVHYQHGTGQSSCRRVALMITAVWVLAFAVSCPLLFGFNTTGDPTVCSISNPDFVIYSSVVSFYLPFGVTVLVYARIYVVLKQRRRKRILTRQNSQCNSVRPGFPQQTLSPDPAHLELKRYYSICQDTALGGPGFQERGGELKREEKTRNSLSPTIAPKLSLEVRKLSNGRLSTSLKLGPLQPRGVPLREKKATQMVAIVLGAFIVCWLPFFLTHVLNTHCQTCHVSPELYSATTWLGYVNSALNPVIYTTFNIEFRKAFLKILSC

Question: For Cc1ccccc1CN1C2=NCCN2C(=O)C2=C1CCN(Cc1ccccc1)C2 [TIC-10, reference compound], which “activity at CXCR7” value ([1]; statement in the description, no method given) is on record?
Answer: CXCR7 agonist

Question: For O=C1C2=C(CCN(Cc3ccccc3)C2)N2CCN=C2N1Cc1ccc(F)c(F)c1 [ONC213], which “activity at DRD3” value [2] is on record?
Answer: inhibitor

Question: And the “activity at DRD2” value [3]?
Answer: inhibitor

Question: What about the DRD2/3 potency ([3]; rank against other imipridones) of the same compound?
Answer: more than ONC201 but less than ONC206

Question: What about the “activity at GPR91” value [4] of the same compound?
Answer: agonist

Question: What about the “activity at GPR132” value [5] of the same compound?
Answer: agonist

Question: What about the GPR132 potency ([5]; rank against other imipridones) of the same compound?
Answer: less than ONC212

Question: With O=C1C2=C(CCN(Cc3ccsc3)C2)N2CCN=C2N1Cc1ccc(C(F)(F)F)cc1 [ONC236] as the compound, how does the “activity at GPR132” value [5] read?
Answer: highly selective GPR132 agonist

Question: What about the IC50 [6] of the same compound?
Answer: 0.234 µM

Question: What about the IC50 ([6]; Homo sapiens, HCT-116) of the same compound?
Answer: 0.088 µM

Question: For O=C1C2=C(CCN(CC(O)c3ccccc3)C2)N2CCN=C2N1Cc1ccc(C(F)(F)F)cc1 (centres unmarked) [ONC237], which “activity at GPR132” value [5] is on record?
Answer: agonist

Question: What about the “activity at DRD5” value [7] of the same compound?
Answer: antagonist

Question: Which “effect on glioma stem cells” value ([8]; CellTiter-Glo cell viability, compared to differentiated glioma cells) does the source give for O=C1C2=C(CCN(Cc3ccccc3)C2)N2CCN=C2N1Cc1ccc(F)cc1F [ONC206] here?
Answer: potently inhibits; also recorded: preferentially eliminated GSCs

Question: What about the tumor sphere formation ([8]; in vitro limiting dilution assay and sphere formation analysis) of the same compound?
Answer: prevented tumor sphere formation and tumor growth

Question: And the “improvement in in vitro potency compared to ONC201” value [9]?
Answer: up to 20 fold

Question: And the “in vitro toxicity to normal cells” value [10]?
Answer: no in vitro toxicity to normal cells at therapeutic doses

Question: What about the “activity at DRD2” value [3] of the same compound?
Answer: selective DRD2 antagonism

Question: What about the anti-cancer efficacy [11] of the same compound?
Answer: most ONC206 responsive bone cancer subtype; also recorded: nanomolar range in 14 out of 16 Ewing's sarcoma cell lines

Question: What about the anti-cancer efficacy [12] of the same compound?
Answer: demonstrated anti-cancer efficacy across various tumor types

Question: What about the responsiveness [13] of the same compound?
Answer: more responsive to ONC206 than ONC201

Question: Which anti-cancer efficacy [12] does the source give for O=C1C2=C(CCN(Cc3ccccc3)C2)N2CCN=C2N1Cc1cccs1 [ONC203] here?
Answer: inactive negative control

Question: Which GPCR profile [14] does the source give for O=C1C2=C(CCN(Cc3ccc(Cl)c(Cl)c3)C2)N2CCN=C2N1Cc1ccc(C(F)(F)F)cc1 [ONC234] here?
Answer: broad spectrum and potent GPCR targeting small molecule

Question: What about the “activity at DRD2” value [3] of the same compound?
Answer: antagonist activity

Question: What about the “activity at CXCR7” value ([1]; arrestin recruitment reporter assay) of the same compound?
Answer: agonist activity

Question: And the “activity at DRD5” value [7]?
Answer: antagonist activity

Question: For TIC-10, which “inhibition of DRD2L” value [15] is on record?
Answer: did not inhibit

Question: With Cc1ccccc1CN1C(=O)C2=C(CCN(Cc3ccccc3)C2)N2CCN=C12 [ONC201, 7-benzyl-4-(2-methylbenzyl)-1,2,6,7,8,9-hexahydroimidazo [1,2-a]pyrido [3,4-e]pyrimidin-5(1H)-one] as the compound, how does the “leukemia xenograft tumor growth” value [16] read?
Answer: not efficacious

Question: And the “activity at DRD4” value [17]?
Answer: weaker potency

Question: And the “survival of mice with orthotopic xenografts” value ([18]; monoagent and in combination with bevacizumab)?
Answer: prolongs the survival

Question: And the effect on xenografts ([18]; temozolomide-resistant high-grade glioma xenografts)?
Answer: shrinks

Question: And the “in vitro efficacy profiling” value [19]?
Answer: broad anti-cancer efficacy with high sensitivity in human brain cancer cell lines

Question: What about the concentration at 2 h [20] of the same compound?
Answer: 2.6 µg/mL

Question: And the “Median OS” value [21, 27]?
Answer: 41.6 weeks

Question: What about the OS12 [21, 27] of the same compound?
Answer: 35%

Question: What about the regression ([21]; one patient, 625 mg every three weeks, after 15 months of therapy) of the same compound?
Answer: 92%

Question: What about the time on study ([21]; person one) of the same compound?
Answer: > 10 weeks

Question: And the response ([21]; person one, H3 K27M, first on-treatment evaluation at 8 weeks)?
Answer: complete disappearance of malignant lesions; also recorded: complete disappearance of tumor lesions

Question: What about the “time on therapy with durable response” value ([21]; person two) of the same compound?
Answer: > 1.5 years

Question: And the response ([21]; person two, H3.3 K27M mutant, 625 mg once every three weeks)?
Answer: durable objective response with complete regression of thalamic lesions

Question: What about the “overall tumor size regression” value ([21]; person two, H3.3 K27M mutant, 625 mg once every three weeks, after 18 doses) of the same compound?
Answer: 96%

Question: What about the serum prolactin ([21]; surrogate marker of target engagement) of the same compound?
Answer: serum prolactin induction was observed; also recorded: significant induction of serum prolactin

Question: What about the “interactions with the kinome” value [22] of the same compound?
Answer: no significant interactions

Question: What about the GPCR profile [14] of the same compound?
Answer: Antagonism of adrenoceptor alpha receptors or other GPCRs was not observed

Question: And the symptoms ([23]; 125 mg once weekly)?
Answer: complete resolution of their inability to use their left arm and hand

Question: What about the “radiographic evaluation of tumor” value ([23]; 125 mg once weekly, after 6 weeks) of the same compound?
Answer: stable tumor lesion

Question: What about the symptoms ([23]; 500 mg once weekly) of the same compound?
Answer: near-complete resolution of their facial palsy; also recorded: improvement in facial palsy

Question: What about the “radiographic evaluation of tumor” value ([23]; 500 mg once weekly, after 16 weeks) of the same compound?
Answer: significant regression; also recorded: shrinkage of lesion

Question: What about the tolerability ([23]; once weekly dosing) of the same compound?
Answer: tolerates the therapy well

Question: What about the “progression-free survival (PFS)” value [24] of the same compound?
Answer: superior progression-free survival (PFS) in H3 K27M patients

Question: What about the “activity at DRD2” value [3] of the same compound?
Answer: selectively antagonizes; also recorded: antagonized

Question: What about the “association rate for DRD2” value [25] of the same compound?
Answer: very slow

Question: What about the viability at 5000 µg/mL [26] of the same compound?
Answer: < 25%

Question: What about the “activity at DRD5” value [7] of the same compound?
Answer: no antagonism; also recorded: but not D1-like (DRD1/5)
